Laboratory results as given in article PMC10033419, “Blocking NS3–NS4B interaction inhibits dengue virus in non-human primates” (Nature, 2023).

Tested on: DENV-1/45AZ5
Experiment: NHP DENV-1 study, serum viral RNA RT-qPCR
Assay type: in vivo, rhesus macaques
Description: WRAIR is fully accredited by AAALAC International.
Serum samples from macaques were checked for the presence of DENV-1 RNA. Viral RNA for RT–qPCR was extracted from 100–200 µl of serum using the QIAcube instrumentation and the QIAGEN Viral RNA extraction kits. The primers and fluorogenic probes used in the RT–qPCR assays have been previously described[63],[64]. DENV-1 RNA was detected in a 25 µl reaction containing 5 µl of extracted RNA sample, 10 pmol of dengue-specific primers and 5 pmol dengue probe in the reaction mixture from Superscript Ill Platinum One-Step Quantitative RT-PCR Kit (Invitrogen, Thermo Fisher Scientific), consisting of 0.5 µl Superscript III RT/Platinum mix, 12.5 µl 2× reaction mix and 0.05 µl ROX reference dye. The one-step RT–qPCR comprises a 30 min RT step at 50 °C and 2 min of Taq polymerase activation at 94 °C, followed by 40 cycles of PCR at 94 °C for 5 s and 53 °C for 35 s performed in an ABI 7500DX Fast Real Time PCR system. Each assay included positive, negative and non-template controls. The RNA copy number was calculated from a standard curve of tenfold serial dilutions made from RNA in vitro transcripts consisting of DENV-1 with known copy numbers. The LLOQ was 100 genomic copies per reaction.
This sample size was sufficient to detect a significant difference in the number of infected animals in each of the groups as low as 83%. […] Sample processing and conducting of assays was performed by laboratory technicians not involved in the treatment/manipulation of the animals.

COc1cc(N[C@H](C(=O)c2c[nH]c3ccc(OC(F)(F)F)cc23)c2ccc(Cl)cc2OC)cc(S(C)(=O)=O)c1 [JNJ-1802]
qRT-PCR Assay Average GE/mL (animal R9, Day 29, LOQ 100 GE/reaction): 0.00E+00 GE/mL
qRT-PCR Assay Result (animal R10, Day 0): Negative
qRT-PCR Assay Average GE/mL (animal R10, Day 0, Assay LOQ = 100 GE/reaction): 0.00E+00 GE/mL
qRT-PCR Assay Result (animal R10, Day 1): Negative
qRT-PCR Assay Average GE/mL (animal R10, Day 1, Assay LOQ = 100 GE/reaction): 0.00E+00 GE/mL
qRT-PCR Assay Result (animal R10, Day 2): Negative
qRT-PCR Assay Average GE/mL (animal R10, Day 2, Assay LOQ = 100 GE/reaction): 0.00E+00 GE/mL
qRT-PCR Assay Result (animal R10, Day 3): Negative
qRT-PCR Assay Average GE/mL (animal R10, Day 3, Assay LOQ = 100 GE/reaction): 0.00E+00 GE/mL
qRT-PCR Assay Result (animal R10, Day 4): Negative
qRT-PCR Assay Average GE/mL (animal R10, Day 4, Assay LOQ = 100 GE/reaction): 0.00E+00 GE/mL
qRT-PCR Assay Result (animal R10, Day 5): Negative
qRT-PCR Assay Average GE/mL (animal R10, Day 5, Assay LOQ = 100 GE/reaction): 0.00E+00 GE/mL
qRT-PCR Assay Result (animal R10, Day 6): Negative
qRT-PCR Assay Average GE/mL (animal R10, Day 6, Assay LOQ = 100 GE/reaction): 0.00E+00 GE/mL
qRT-PCR Assay Result (animal R10, Day 7): Negative
qRT-PCR Assay Average GE/mL (animal R10, Day 7, Assay LOQ = 100 GE/reaction): 0.00E+00 GE/mL
qRT-PCR Assay Result (animal R10, Day 8): Negative
qRT-PCR Assay Average GE/mL (animal R10, Day 8, Assay LOQ = 100 GE/reaction): 0.00E+00 GE/mL
qRT-PCR Assay Result (animal R10, Day 9): Negative
qRT-PCR Assay Average GE/mL (animal R10, Day 9, Assay LOQ = 100 GE/reaction): 0.00E+00 GE/mL
qRT-PCR Assay Result (animal R10, Day 10): Negative
qRT-PCR Assay Average GE/mL (animal R10, Day 10, Assay LOQ = 100 GE/reaction): 0.00E+00 GE/mL
qRT-PCR Assay Result (animal R10, Day 11): Negative
qRT-PCR Assay Average GE/mL (animal R10, Day 11, Assay LOQ = 100 GE/reaction): 0.00E+00 GE/mL
qRT-PCR Assay Result (animal R10, Day 14): Negative
qRT-PCR Assay Average GE/mL (animal R10, Day 14, Assay LOQ = 100 GE/reaction): 0.00E+00 GE/mL
qRT-PCR Assay Result (animal R10, Day 29): Negative
qRT-PCR Assay Average GE/mL (animal R10, Day 29, Assay LOQ = 100 GE/reaction): 0.00E+00 GE/mL
qRT-PCR Assay Result (animal R11, Day 0): Negative
qRT-PCR Assay Average GE/mL (animal R11, Day 0, Assay LOQ = 100 GE/reaction): 0.00E+00 GE/mL
qRT-PCR Assay Result (animal R11, Day 1): Negative
qRT-PCR Assay Average GE/mL (animal R11, Day 1, Assay LOQ = 100 GE/reaction): 0.00E+00 GE/mL
qRT-PCR Assay Result (animal R11, Day 2): Negative
qRT-PCR Assay Average GE/mL (animal R11, Day 2, Assay LOQ = 100 GE/reaction): 0.00E+00 GE/mL
qRT-PCR Assay Result (animal R11, Day 3): Negative
qRT-PCR Assay Average GE/mL (animal R11, Day 3, Assay LOQ = 100 GE/reaction): 0.00E+00 GE/mL
qRT-PCR Assay Result (animal R11, Day 4): Negative
qRT-PCR Assay Average GE/mL (animal R11, Day 4, Assay LOQ = 100 GE/reaction): 0.00E+00 GE/mL
qRT-PCR Assay Result (animal R11, Day 5): Negative
qRT-PCR Assay Average GE/mL (animal R11, Day 5, Assay LOQ = 100 GE/reaction): 0.00E+00 GE/mL
qRT-PCR Assay Result (animal R11, Day 6): Negative
qRT-PCR Assay Average GE/mL (animal R11, Day 6, Assay LOQ = 100 GE/reaction): 0.00E+00 GE/mL
qRT-PCR Assay Result (animal R11, Day 7): Negative
qRT-PCR Assay Average GE/mL (animal R11, Day 7, Assay LOQ = 100 GE/reaction): 0.00E+00 GE/mL
qRT-PCR Assay Result (animal R11, Day 8): Negative
qRT-PCR Assay Average GE/mL (animal R11, Day 8, Assay LOQ = 100 GE/reaction): 0.00E+00 GE/mL
qRT-PCR Assay Result (animal R11, Day 9): Negative
qRT-PCR Assay Average GE/mL (animal R11, Day 9, Assay LOQ = 100 GE/reaction): 0.00E+00 GE/mL
qRT-PCR Assay Result (animal R11, Day 10): Negative
qRT-PCR Assay Average GE/mL (animal R11, Day 10, Assay LOQ = 100 GE/reaction): 0.00E+00 GE/mL
qRT-PCR Assay Result (animal R11, Day 11): Negative
qRT-PCR Assay Average GE/mL (animal R11, Day 11, Assay LOQ = 100 GE/reaction): 0.00E+00 GE/mL
qRT-PCR Assay Result (animal R11, Day 14): Negative
qRT-PCR Assay Average GE/mL (animal R11, Day 14, Assay LOQ = 100 GE/reaction): 0.00E+00 GE/mL
qRT-PCR Assay Result (animal R11, Day 29): Negative
qRT-PCR Assay Average GE/mL (animal R11, Day 29, Assay LOQ = 100 GE/reaction): 0.00E+00 GE/mL
qRT-PCR Assay Result (animal R12, Day 0): Negative
qRT-PCR Assay Average GE/mL (animal R12, Day 0, Assay LOQ = 100 GE/reaction): 0.00E+00 GE/mL
qRT-PCR Assay Result (animal R12, Day 1): Negative
qRT-PCR Assay Average GE/mL (animal R12, Day 1, Assay LOQ = 100 GE/reaction): 0.00E+00 GE/mL
qRT-PCR Assay Result (animal R12, Day 2): Negative
qRT-PCR Assay Average GE/mL (animal R12, Day 2, Assay LOQ = 100 GE/reaction): 0.00E+00 GE/mL
qRT-PCR Assay Result (animal R12, Day 3): Negative
qRT-PCR Assay Average GE/mL (animal R12, Day 3, Assay LOQ = 100 GE/reaction): 0.00E+00 GE/mL
qRT-PCR Assay Result (animal R12, Day 4): Negative
qRT-PCR Assay Average GE/mL (animal R12, Day 4, Assay LOQ = 100 GE/reaction): 0.00E+00 GE/mL
qRT-PCR Assay Result (animal R12, Day 5): Negative
qRT-PCR Assay Average GE/mL (animal R12, Day 5, Assay LOQ = 100 GE/reaction): 0.00E+00 GE/mL
qRT-PCR Assay Result (animal R12, Day 6): Negative
qRT-PCR Assay Average GE/mL (animal R12, Day 6, Assay LOQ = 100 GE/reaction): 0.00E+00 GE/mL
qRT-PCR Assay Result (animal R12, Day 7): Negative
qRT-PCR Assay Average GE/mL (animal R12, Day 7, Assay LOQ = 100 GE/reaction): 0.00E+00 GE/mL
qRT-PCR Assay Result (animal R12, Day 8): Negative
qRT-PCR Assay Average GE/mL (animal R12, Day 8, Assay LOQ = 100 GE/reaction): 0.00E+00 GE/mL
qRT-PCR Assay Result (animal R12, Day 9): Negative
qRT-PCR Assay Average GE/mL (animal R12, Day 9, Assay LOQ = 100 GE/reaction): 0.00E+00 GE/mL
qRT-PCR Assay Result (animal R12, Day 10): Negative
qRT-PCR Assay Average GE/mL (animal R12, Day 10, Assay LOQ = 100 GE/reaction): 0.00E+00 GE/mL
qRT-PCR Assay Result (animal R12, Day 11): Negative
qRT-PCR Assay Average GE/mL (animal R12, Day 11, Assay LOQ = 100 GE/reaction): 0.00E+00 GE/mL
qRT-PCR Assay Result (animal R12, Day 14): Negative
qRT-PCR Assay Average GE/mL (animal R12, Day 14, Assay LOQ = 100 GE/reaction): 0.00E+00 GE/mL
qRT-PCR Assay Result (animal R12, Day 29): Negative
qRT-PCR Assay Average GE/mL (animal R12, Day 29, Assay LOQ = 100 GE/reaction): 0.00E+00 GE/mL
